{
  "source": "patent US20200345746A1",
  "about": "“Oxazine Derivative for Use in the Prevention of Alzheimer's Disease in at Risk Patents” (Novartis AG, priority 2016, published 2020)",
  "key": {"[1]": {"assay": "off-target binding or activity"}, "Aβ40 [2]": {"system": "Aβ40", "assay": "Acute PK/PD in APOE4-TR mice: Aβ40 in brain", "type": "in vivo, mouse", "conditions": "for Average Aβ40 brain ± SD: n = 6; for Aβ40 reduction vs vehicle, range over the doses: APOE4-TR mice, 3, 10 and 30 μmol/kg", "protocol": "Compound 1 was formulated as a suspension. Vehicle or compound was given by oral administration in a volume of 10 ml/kg once. Vehicle: 0.1% Tween80 in 0.5% Methylcellulose in water.\n(§1) Frozen mouse forebrains were weighed and homogenized in 9 volumes (w/v) of ice-cold TBS-Complete (20 mM Tris-HCl pH 7.4, 137 mM NaCl, 1× Complete [Protease Inhibitor Cocktail Tablets: 1 836 145, Roche Diagnostics GmbH, Penzberg, Germany]) by sonication (90% duty cycle, output control 5, 40-55 pulses, [Sonifier 450, Branson]). After homogenization several 50 μl aliquots were prepared for analysis and were stored at −80° C.\n(§2) Endogenous Aβ40 in mice was determined with the Meso Scale Discovery (MSD) 96-well MULTI-ARRAY human/rodent (4G8) Aβ40 Ultrasensitive Assay (#K110FTE-3, Meso Scale Discovery, Gaithersburg, USA). The assay was performed according to the manufacturer's instructions except for the calibration curve and the sample preparations. TritonX-100 (TX-100) soluble Aβ40 was extracted from forebrain with 1% TX-100 using a 50 μl aliquot of each 1:10 forebrain homogenate, mixed with 50 μl 2% TX-100 in TBS complete (20 mM Tris-HCl pH 7.4, 137 mM NaCl, 1× Complete [Protease Inhibitor Cocktail Tablets: 1 836 145, Roche Diagnostics GmbH, Penzberg Germany]) to reach a final concentration of 1% TX-100 and a 1:20 forebrain dilution. The samples were incubated for 15 min on ice and vortexed every 5 min. The samples were ultra-centrifuged (100000×g, 4° C., 15 min) and 50 μl of the clear supernatants were transferred to fresh tubes. For the Aβ40 assay the supernatants were further diluted 1:5 in 3% Blocker A solution (from kit) to a final forebrain dilution of 1:100 and applied to the plate.\n(§3) The calibration curve was prepared in a corresponding dilution of 1% Blocker A solution spiked with synthetic Aβ1-40 peptide (1.56-100 pg/ml) except for non-transgenic mouse brain samples: In this case, the calibration curve was prepared in a correspondingly diluted APP knockout mouse forebrain spiked with synthetic Aβ1-40 peptide (1.56-100 pg/ml). For all samples and standards 25 μl were applied per well. For each determination duplicate wells were done. The mean values from the duplicate wells were used for calculations."}, "Aβ40 [3]": {"system": "Aβ40", "assay": "Triton TX-100 soluble Aβ40 in APP23 mouse brain", "type": "in vivo", "conditions": "APP23 mice", "protocol": "as §1\nas §2, with “Human” for “Endogenous”, “Aβ40 and 42” for “Aβ40”, “(6E10) Aβ40/42” for “(4G8) Aβ40 Ultrasensitive”, “(Meso” for “(#K110FTE-3, Meso”, “Rockville, Md.,” for “Gaithersburg,”, “The” for “For the Aβ40 assay the”\nas §3, with “calculations. The relative units for samples and standards were imported into SOFTmax PRO 4.0 for calculation of standard curves and quantification of samples.” for “calculations.”\nBrain homogenates were extracted with 1% Triton X-100 in buffer and the resulting supernatant was considered to represent soluble forms of APP metabolites. In addition to Aβ40 and 42, we determined the N-terminal APP fragments sAPPα (direct cleavage product of α-secretase) and sAPPβ (Swe) (direct product of BACE1 cleavage). […] Since no change in the APP expression and Aβ generation is known to happen during this age, it is assumed that the increased values in the vehicle group (18-20 mo old) arise from “leakage” out of the Aβ deposits (which increase several fold, see below)."}, "[4]": {"conditions": "APOE4-TR mice, 30 μmol/kg acute"}},
  "data": [
    {"smiles": "C[C@@]1(c2nc(NC(=O)c3ncc(C(F)(F)F)cc3Cl)ccc2F)CO[C@@](C)(C(F)(F)F)C(N)=N1", "note": "[Compound 1, N-(6-((3R,6R)-5-amino-3,6-dimethyl-6-(trifluoromethyl)-3,6-dihydro-2H-1,4-oxazin-3-yl)-5-fluoropyridin-2-yl)-3-chloro-5-(trifluoromethyl)picolinamide]", "values": [
      {"measurement": "off-target binding or activity", "setting": "[1]", "value": "no relevant off-target binding or activity"},
      {"measurement": "Mini AUEC (brain Aβ40)", "setting": "Aβ40 [2]; APOE4-TR mice, 3 μmol/kg acute", "value": 32, "unit": "%"},
      {"measurement": "Average Aβ40 brain ± SD", "setting": "Aβ40 [2]; APOE4-TR mice, 3 μmol/kg acute p.o., 4 h", "value": "0.114 ± 0.024", "unit": "pmol/g"},
      {"measurement": "Average Aβ40 brain ± SD", "setting": "Aβ40 [2]; APOE4-TR mice, 3 μmol/kg acute p.o., 24 h", "value": "0.160 ± 0.033", "unit": "pmol/g"},
      {"measurement": "% reduction vs vehicle (brain Aβ40)", "setting": "Aβ40 [2]; APOE4-TR mice, 3 μmol/kg acute, 4 h", "value": 43, "unit": "%"},
      {"measurement": "% reduction vs vehicle (brain Aβ40)", "setting": "Aβ40 [2]; APOE4-TR mice, 3 μmol/kg acute, 24 h", "value": 20, "unit": "%"},
      {"measurement": "Mini AUEC (brain Aβ40)", "setting": "Aβ40 [2]; APOE4-TR mice, 10 μmol/kg acute", "value": 47, "unit": "%"},
      {"measurement": "Average Aβ40 brain ± SD", "setting": "Aβ40 [2]; APOE4-TR mice, 10 μmol/kg acute p.o., 4 h", "value": "0.074 ± 0.014", "unit": "pmol/g"},
      {"measurement": "Average Aβ40 brain ± SD", "setting": "Aβ40 [2]; APOE4-TR mice, 10 μmol/kg acute p.o., 24 h", "value": "0.139 ± 0.041", "unit": "pmol/g"},
      {"measurement": "% reduction vs vehicle (brain Aβ40)", "setting": "Aβ40 [2]; APOE4-TR mice, 10 μmol/kg acute, 4 h", "value": 63, "unit": "%"},
      {"measurement": "% reduction vs vehicle (brain Aβ40)", "setting": "Aβ40 [2]; APOE4-TR mice, 10 μmol/kg acute, 24 h", "value": 31, "unit": "%"},
      {"measurement": "Mini AUEC (brain Aβ40)", "setting": "Aβ40 [2]; [4]", "value": 72, "unit": "%"},
      {"measurement": "maximal effect on Aβ reduction in the brain", "setting": "Aβ40 [2]; [4]", "value": "> 70", "unit": "%"},
      {"measurement": "Average Aβ40 brain ± SD", "setting": "Aβ40 [2]; APOE4-TR mice, 30 μmol/kg acute p.o., 4 h", "value": "0.046 ± 0.006", "unit": "pmol/g"},
      {"measurement": "Average Aβ40 brain ± SD", "setting": "Aβ40 [2]; APOE4-TR mice, 30 μmol/kg acute p.o., 24 h", "value": "0.068 ± 0.021", "unit": "pmol/g"},
      {"measurement": "% reduction vs vehicle (brain Aβ40)", "setting": "Aβ40 [2]; APOE4-TR mice, 30 μmol/kg acute, 4 h", "value": 77, "unit": "%"},
      {"measurement": "% reduction vs vehicle (brain Aβ40)", "setting": "Aβ40 [2]; APOE4-TR mice, 30 μmol/kg acute, 24 h", "value": 66, "unit": "%"},
      {"measurement": "Aβ40 reduction vs vehicle, range over the doses", "setting": "Aβ40 [2]; 4h", "value": "43-77%"},
      {"measurement": "Aβ40 reduction vs vehicle, range over the doses", "setting": "Aβ40 [2]; 24h", "value": "20-66%"},
      {"measurement": "Aβ40 change vs vehicle (Triton TX-100 soluble, brain)", "setting": "Aβ40 [3]; 0.03 g/kg vs vehicle", "value": "−4.6", "unit": "%"},
      {"measurement": "Aβ40 change vs vehicle (Triton TX-100 soluble, brain)", "setting": "Aβ40 [3]; 0.3 g/kg vs vehicle", "value": "−43.7", "unit": "%"},
      {"measurement": "treatment effects on soluble Aβ species (brain tissue and CSF Aβ40)", "setting": "Aβ40 [3]; high dose", "value": "−43.7 to −77", "unit": "%"},
      {"measurement": "treatment effects on soluble Aβ species (brain tissue and CSF Aβ40)", "setting": "Aβ40 [3]; low dose", "value": "−4.6 to −20", "unit": "%"}
    ]}
  ]
}
